Data set [1] in a line: Pharmacokinetics in mice (plasma exposure after oral administration). The data set is classed as in vivo. The settings on record: mouse, ICR mice, oral (i.g.) 3 mg/kg, read-out: After oral administration of 3 mg/kg, mouse plasma exposure AUCinf.
The target of data set [2] is T1, androgen receptor (AR) splicing variant AR-v7 (Homo sapiens, UniProt P10275).
T1 construct: The degradation activity of compounds on AR-v7 in 22RV1 cells; host or cells: 22RV1 cells
T1 sequence (P10275 1-644 isoform P10275-3): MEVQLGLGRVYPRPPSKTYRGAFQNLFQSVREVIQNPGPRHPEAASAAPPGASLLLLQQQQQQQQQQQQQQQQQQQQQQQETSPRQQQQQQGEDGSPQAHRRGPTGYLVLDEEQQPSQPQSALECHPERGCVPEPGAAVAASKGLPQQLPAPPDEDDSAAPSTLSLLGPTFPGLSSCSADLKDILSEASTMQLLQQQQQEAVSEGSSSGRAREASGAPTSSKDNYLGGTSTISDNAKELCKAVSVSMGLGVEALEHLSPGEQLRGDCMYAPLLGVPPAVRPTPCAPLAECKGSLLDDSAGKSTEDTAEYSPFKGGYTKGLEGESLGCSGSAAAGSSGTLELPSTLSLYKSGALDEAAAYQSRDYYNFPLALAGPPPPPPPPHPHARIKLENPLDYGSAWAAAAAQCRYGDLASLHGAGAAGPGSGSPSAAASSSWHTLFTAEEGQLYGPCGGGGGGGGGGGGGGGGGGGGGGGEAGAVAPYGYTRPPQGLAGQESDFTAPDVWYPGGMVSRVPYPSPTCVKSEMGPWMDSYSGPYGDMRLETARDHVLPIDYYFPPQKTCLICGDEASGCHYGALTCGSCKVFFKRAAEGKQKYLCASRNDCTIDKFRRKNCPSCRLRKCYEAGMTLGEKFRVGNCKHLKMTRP
Kind of data set: Degradation activity on androgen receptor splicing variant AR-v7 in 22RV1 cells (ELISA). Format: cell-based. Conditions: AR-v7 degradation in 22RV1 cells, 48 h, class symbols. On the technique in general: In an ELISA, binding on a coated surface is turned into a signal by an enzyme label.

Data set [3] deals with 22RV1 cells. Conditions: Homo sapiens, 22Rv1, 144 h, read-out: 22RV1 IC50 (nM), 22RV1 cells, 6 days culture, CCK-8, OD 450 nm.
Procedure: • 22RV1 cell lines (Cobioer, CBP6034) • Penicillin-Streptomycin (Hyclone, Cat. No. SV30010) • Cell counting kit-8 (Signalway Antibody, Cat. No. CP002)
Then, two wells were set for each concentration. 20 μL of the diluted compound solution was added to the cell culture well, and then the plate was gently shaken to mix. In addition, the experiment included 3 negative control wells only containing cells and 3 blank control wells only containing culture medium.

The structures appear in SMILES notation.

What is called DC50 is the concentration giving 50% degradation. For orientation: IC50 means the point on the concentration scale where inhibition reaches its midpoint. Regarding `O=C1CCC(N2C(=O)c3ccc(N[C@H]4C[C@H](Oc5ccc(C6(c7ccc(OCc8ccnc(N9CC%10(COC%10)C9)n8)cc7)CCCC6)cc5)C4)cc3C2=O)C(=O)N1` (stereo partly drawn) [Example 360, 5-(((1r,3r)-3-(4-(1-(4-((2-(2-oxa-6-azaspiro[3.3]heptane-6-yl)pyrimidin-4-yl)methoxy)phenyl)cyclopentyl)phenoxy)cyclobutyl)amino)-2-(2,6-dioxopiperidin-3-yl)isoindolin-1,3-dione], in data set [1], the AUC(0-inf) lay within 1000 to 5000 ng·h/mL. This compound displayed a DC50 in data set [2] below 10 nM. Moreover, in data set [3], the IC50 was 4 nM.

With `O=C1CCC(N2C(=O)c3ccc(N[C@H]4C[C@@H](Oc5ccc(C6(c7ccc(OCc8ccnc(N9CC%10(COC%10)C9)n8)cc7)CCCC6)cc5)C4)cc3C2=O)C(=O)N1` (stereo partly drawn) [Example 361, 5-(((1s,3s)-3-(4-(1-(4-((2-(2-oxa-6-azaspiro[3.3]heptane-6-yl)pyrimidin-4-yl)methoxy)phenyl)cyclopentyl)phenoxy)cyclobutyl)amino)-2-(2,6-dioxopiperidin-3-yl)isoindolin-1,3-dione], the AUC(0-inf) in data set [1] was 1000 to 5000 ng·h/mL. In addition, the DC50 in data set [2] is below 10 nM. For the same compound, the IC50 in data set [3] was 8 nM.

Take `O=C1CCC(N2C(=O)c3ccc(N[C@H]4C[C@H](Oc5ccc(S(=O)(=O)c6ccc(OCc7ccnc(N8CC9(COC9)C8)n7)cc6)cc5)C4)cc3C2=O)C(=O)N1` (stereo partly drawn) [Example 362, 5-(((1r,3r)-3-(4-((4-((2-(2-oxa-6-azaspiro[3.3]heptane-6-yl)pyrimidin-4-yl)methoxy)phenyl)sulfonyl)phenoxy)cyclobutyl)amino)-2-(2,6-dioxopiperidin-3-yl)isoindolin-1,3-dione]: the AUC(0-inf) in data set [1] was in the range of 100 to 1000 ng·h/mL. In addition, the DC50 in data set [2] is below 10 nM. Besides, the IC50 in data set [3] was 20 nM.

With `C=CC(c1ccc(OCc2ccnc(N3CC4(COC4)C3)n2)cc1)c1ccc(O[C@H]2C[C@H](Nc3ccc4c(c3)C(=O)N(C3CCC(=O)NC3=O)C4=O)C2)cc1` (stereo partly drawn) [Example 367], the AUC(0-inf) in data set [1] was in the range of 1000 to 5000 ng·h/mL. Also, in data set [2], the DC50 is below 10 nM. In addition, in data set [3], the concentration for half-maximal inhibition (IC50) was 8 nM.

On to `C=CC(c1ccc(Oc2ccc(-n3nccn3)nn2)cc1)c1ccc(O[C@H]2C[C@H](Nc3ccc4c(c3)C(=O)N(C3CCC(=O)NC3=O)C4=O)C2)cc1` (stereo partly drawn) [Example 371, 5-(((1r,3r)-3-(4-(1-(4-((6-(2H-1,2,3-triazole-2-yl)pyridazine-3-yl)oxy)phenyl)allyl)phenoxy)cyclobutyl)amino)-2-(2,6-dioxopiperidin-3-yl)isoindolin-1,3-dione], for which the AUC(0-inf) in data set [1] is 5000 to 30000 ng·h/mL. The compound further returned a half-maximal degradation concentration (DC50) in data set [2] below 10 nM. The 50% inhibitory concentration (IC50) in data set [3] amounted to 9 nM.

Turning to `C=CC(c1ccc(Oc2cnc(-n3nccn3)nc2)cc1)c1ccc(O[C@H]2C[C@H](Nc3ccc4c(c3)C(=O)N(C3CCC(=O)NC3=O)C4=O)C2)cc1` (stereo partly drawn) [Example 372, 5-(((1r,3r)-3-(4-(1-(4-((2-(2H-1,2,3-triazole-2-yl)pyrimidin-5-yl)oxy)phenyl)allyl)phenoxy)cyclobutyl)amino)-2-(2,6-dioxopiperidin-3-yl)isoindolin-1,3-dione], the AUC(0-inf) in data set [1] was in the range of 5000 to 30000 ng·h/mL. The half-maximal degradation concentration (DC50) in data set [2] is below 10 nM. The IC50 in data set [3] came out at 8 nM.

`C=CC(c1ccc(Oc2cnc(-c3nnc(C)o3)nc2)cc1)c1ccc(O[C@H]2C[C@H](Nc3ccc4c(c3)C(=O)N(C3CCC(=O)NC3=O)C4=O)C2)cc1` (stereo partly drawn) [Example 373, 2-(2,6-dioxopiperidin-3-yl)-5-(((1r,3r)-3-(4-(1-(4-((2-(5-methyl-1,3,4-oxadiazol-2-yl)pyrimidin-5-yl)oxy)phenyl)allyl)phenoxy)cyclobutyl)amino)isoindolin-1,3-dione]: the AUC(0-inf) in data set [1] was in the range of 5000 to 30000 ng·h/mL. Also, in data set [2], the DC50 is below 10 nM. Further, in data set [3], the half-inhibitory concentration (IC50) turned out to be 13 nM.

Turning to `CC(O)c1ncc(Oc2ccc(C3(c4ccc(O[C@H]5C[C@H](Nc6ccc7c(c6)C(=O)N(C6CCC(=O)NC6=O)C7=O)C5)cc4)CC3)cc2)cn1` (stereo partly drawn) [Example 377, 2-(2,6-dioxopiperidin-3-yl)-5-(((1r,3r)-3-(4-(1-(4-((2-(1-hydroxylethyl)pyrimidin-5-yl)oxy)phenyl)cyclopropyl)phenoxy)cyclobutyl)amino)isoindolin-1,3-dione], in data set [1], the AUC(0-inf) is 5000 to 30000 ng·h/mL. In data set [2], the DC50 was below 10 nM. Besides, the IC50 in data set [3] was 12 nM.

As for `Cc1nnc(-c2cccc(Oc3ccc(C(C)(C)c4ccc(O[C@H]5C[C@H](Nc6ccc7c(c6)C(=O)N(C6CCC(=O)NC6=O)C7=O)C5)cc4)cc3)n2)o1` (stereo partly drawn) [Example 423], in data set [1], the AUC(0-inf) is 5000 to 30000 ng·h/mL. For the same compound, the half-maximal degradation concentration (DC50) in data set [2] is below 10 nM. Further, in data set [3], the IC50 was 3 nM.

`Cc1noc(-c2nccc(Oc3ccc(C(C)(C)c4ccc(O[C@H]5C[C@H](Nc6ccc7c(c6)C(=O)N(C6CCC(=O)NC6=O)C7=O)C5)cc4)cc3)n2)n1` (stereo partly drawn) [Example 426]: the AUC(0-inf) in data set [1] fell in the range of 1000 to 5000 ng·h/mL. The compound also gave a DC50 in data set [2] below 10 nM. In addition, the IC50 in data set [3] was found to be 7 nM.

As to `CC(C)(c1ccc(OCc2ccnc(-n3nccn3)n2)cc1)c1ccc(O[C@H]2C[C@@H](Nc3ccc4c(c3)C(=O)N(C3CCC(=O)NC3=O)C4=O)C2)cc1` (stereo partly drawn) [Example 446, 5-(((1s,3s)-3-(4-(2-(4-((2-(2H-1,2,3-triazol-2-yl)pyrimidin-4-yl)methoxy)phenyl)propan-2-yl)phenoxy)cyclobutyl)amino)-2-(2,6-dioxopiperidin-3-yl)isoindolin-1,3-dione], the AUC(0-inf) in data set [1] is 5000 to 30000 ng·h/mL. In addition, the DC50 in data set [2] lay within 11 to 100 nM. In data set [3], the IC50 was 9 nM.

For `CC1(O)CN(c2nccc(COc3ccc(C(C)(C)c4ccc(O[C@H]5C[C@@H](Nc6ccc7c(c6)C(=O)N(C6CCC(=O)NC6=O)C7=O)C5)cc4)cc3)n2)C1` (stereo partly drawn) [Example 455], the AUC(0-inf) in data set [1] is 1000 to 5000 ng·h/mL. In addition, in data set [2], the DC50 was below 10 nM. In addition, the half-maximal inhibitory concentration (IC50) in data set [3] was found to be 5 nM.

For the compound `CN(C)[C@@H]1CCN(c2nccc(COc3ccc(C(C)(C)c4ccc(O[C@H]5C[C@@H](Nc6ccc7c(c6)C(=O)N(C6CCC(=O)NC6=O)C7=O)C5)cc4)cc3)n2)C1` (stereo partly drawn) [Example 456], the AUC(0-inf) in data set [1] lay in the range of 5000 to 30000 ng·h/mL. In data set [2], the DC50 is below 10 nM. The 50% inhibitory concentration (IC50) in data set [3] came out at 12 nM.

Consider `CC(C)(c1ccc(OCc2ccnc(-c3nnco3)n2)cc1)c1ccc(O[C@H]2C[C@@H](Nc3ccc4c(c3)C(=O)N(C3CCC(=O)NC3=O)C4=O)C2)cc1` (stereo partly drawn) [Example 464, 5-(((1s,3s)-3-(4-(2-(4-((2-(1,3,4-oxadiazol-2-yl)pyrimidin-4-yl)methoxy)phenyl)propan-2-yl)phenoxy)cyclobutyl)amino)-2-(2,6-dioxopiperidin-3-yl)isoindolin-1,3-dione], for which, in data set [1], the AUC(0-inf) was 100 to 1000 ng·h/mL. Also, the DC50 in data set [2] was below 10 nM. In data set [3], the concentration for half-maximal inhibition (IC50) came out at 4 nM.

As for `Cc1nnc(-c2ncc(Oc3ccc(C4(c5ccc(O[C@H]6C[C@H](Nc7ccc8c(c7)C(=O)N(C7CCC(=O)NC7=O)C8=O)C6)cc5)CCCC4)cc3)cn2)o1` (stereo partly drawn) [Example 483], the AUC(0-inf) in data set [1] lay in the range of 5000 to 30000 ng·h/mL. In data set [2], this compound registered a DC50 below 10 nM. For the same compound, in data set [3], the 50% inhibitory concentration (IC50) amounted to 2 nM.

`CC(C)(c1ccc(CN2CC(Nc3ccc4c(c3)C(=O)N(C3CCC(=O)NC3=O)C4=O)C2)cc1)c1ccc(OCc2ccnc(N3CC4(COC4)C3)n2)cc1` (stereo not drawn) [Example 502]: in data set [1], the AUC(0-inf) fell in the range of 1000 to 5000 ng·h/mL. Further, in data set [2], the DC50 is below 10 nM. Besides, the 50% inhibitory concentration (IC50) in data set [3] is 12 nM.

For `CC(C)(c1ccc(Oc2cc(F)cnc2-n2ccnn2)cc1)c1ccc(O[C@H]2C[C@H](Nc3ccc4c(c3)C(=O)N(C3CCC(=O)NC3=O)C4=O)C2)cc1` (stereo partly drawn) [Example 516], the AUC(0-inf) in data set [1] was 1000 to 5000 ng·h/mL. This compound also gave a DC50 in data set [2] below 10 nM. The IC50 in data set [3] worked out at 10 nM.

Take `CC(O)c1ncc(Oc2ccc(C3(c4ccc(O[C@H]5C[C@H](Nc6ccc7c(c6)C(=O)N(C6CCC(=O)NC6=O)C7=O)C5)cc4)CCCCC3)cc2)cn1` (stereo partly drawn) [Example 528]: the AUC(0-inf) in data set [1] fell in the range of 5000 to 30000 ng·h/mL. In data set [2], this compound yielded a DC50 below 10 nM. The IC50 in data set [3] was found to be 2 nM.

`CCC(CC)(c1ccc(Oc2cnc(-c3noc(C)n3)nc2)cc1)c1ccc(O[C@H]2C[C@@H](Nc3ccc4c(c3)C(=O)N(C3CCC(=O)NC3=O)C4=O)C2)cc1` (stereo partly drawn) [Example 553]: the AUC(0-inf) in data set [1] lay within 5000 to 30000 ng·h/mL. In data set [2], this compound displayed a 50% degradation concentration (DC50) below 10 nM. The IC50 in data set [3] was 15 nM.

In the case of `CC(C)(c1ccc(Oc2cnc(-n3ccnn3)cn2)cc1)c1ccc(O[C@H]2C[C@H](Nc3ccc4c(c3)C(=O)N(C3CCC(=O)NC3=O)C4=O)C2)cc1` (stereo partly drawn) [Example 584], the AUC(0-inf) in data set [1] was 1000 to 5000 ng·h/mL. In addition, the 50% degradation concentration (DC50) in data set [2] was below 10 nM. Moreover, in data set [3], the IC50 was found to be 4 nM.

`Cc1nc(-c2cc(Oc3ccc(C(C)(C)c4ccc(O[C@H]5C[C@H](Nc6ccc7c(c6)C(=O)N(C6CCC(=O)NC6=O)C7=O)C5)cc4)cc3)ncn2)no1` (stereo partly drawn) [Example 588]: the AUC(0-inf) in data set [1] was 5000 to 30000 ng·h/mL. Besides, the DC50 in data set [2] is below 10 nM. Further, the half-maximal inhibitory concentration (IC50) in data set [3] is 13 nM.
